Several values for one entry are separate records, joined by “and”; a condition that tells them apart may be missing. Equal entries are not always repeated. Entries after “also recorded” stand apart in the source; their conditions may differ. Where two headings read alike, the source gives them in different places. Each block holds one compound with its values, some of them ahead of it.
Experiments:
rats = test: Single-dose tolerability in rats; type: in vivo; conditions: single-dose studies with rats
[1] = system: DAMP-induced TNF secretion (CIRP, SAA, PEDF, HSP 70, HSP90, H2A), human primary macrophages; test: DAMPs-induced TNF secretion in human macrophages; type: cell-based; conditions: 16 hours
[2] = system: CCI-induced neuropathic pain; test: Chronic constriction injury (CCI) of the sciatic nerve neuropathic pain model in rats; type: in vivo, male Wistar rats
Description: Twenty-four male Wistar rats were separated into four groups (n=6/group) for treatment as follows [please give details concerning each of the four groups regarding procedure and treatment:
The CCI rats each received surgery. […] Mechanical and thermal sensitivity tests were also performed over time. Hargreaves Thermal Hypersensitivity test was administered to the rats as well as Von Frey mechanical hypersensitivity test.
Rats (male Wistar, 150-180 gm, n=6/group) had CCI surgery. […] Two weeks after surgery, thermal (Hargreaves) or mechanical (von Frey) hypersensitivity was assessed. *: P<0.05 vs. PBS group.
In this experiment, male Wistar rats (n=6/group) had CCI surgery. […] Mechanical allodynia was assessed 5 hours later. N=6-8 rats/group. *: p<0.05) vs. HMGB1 alone. Mechanical and thermal sensitivity tests were also performed over time.

[3] = system: liver ischemia and reperfusion injury; test: Warm liver ischemia and reperfusion (I/R) in mice; type: in vivo, male C57BL/6 mice
[4] = up to 6 hours, versus P5779
STZ-induced diabetes = STZ-induced diabetes in mice; type: in vivo; conditions: repetitive K883 500 μg/mouse, vs PBS
Description: Mice were administered repetitive administration of […] (500 μg/mouse). […] Repetitive administration of […] was therefore shown to be beneficial in STZ-induced diabetes. […] (*: P<0.05 vs. PBS group. N=6-8 mice per group).

[5] = system: APAP-induced liver injury; test: APAP-induced liver injury model in mice; type: in vivo, male C57BL/6 mice
[6] = Pharmacokinetics after intravenous administration to rats (LC-MS)
[7] = rat, in vivo
[8] = system: liver ischemia and reperfusion injury; conditions: cited from earlier work
[9] = system: PAMP-induced TNF release (LPS, PGN, AGE, Poly I:C), human macrophages; conditions: Yang 2015; cited from earlier work
[10] = system: APAP-induced liver injury; conditions: cited from earlier work
[11] = system: HMGB1-induced TNF release, human primary macrophages; conditions: Yang 2015; cited from earlier work

Structure (SMILES): NC(=O)N(CCC(=O)O)NC(=O)[C@H](CO)NC(=O)[C@H](CO)NC(=O)N(N)Cc1ccccc1 [K883]
tolerability (rats): well-tolerated
TNF secretion induced by other DAMPs [1]: is not inhibited
CCI-induced CXCL1 and TNF expression (DRGs) ([2]; DRGs): reduces CCI-induced CXCL1 and TNF expression
CCI-induced thermal and/or mechanical hypersensitivity (neuropathy) ([2]; Hargreaves / von Frey, K883 800 μg/rat IP once a day for 3 days): improved CCI-induced thermal and mechanical hypersensitivity; also recorded: effectively reduces peripheral neuropathy; also recorded: ameliorated both mechanical and thermal hypersensitivity; also recorded: ameliorated the thermal hypersensitivity
CCI-induced CXCL1, TNF and IL-1β expression (spine) ([2]; spine): reduces CCI-induced CXCL1, TNF and IL-1β expression
liver H&E staining: inflammation (neutrophil infiltration) ([3]; K883, 6 hours after reperfusion, vs vehicle control): reduced inflammation
protection against hepatic ischemia/reperfusion injury ([3]; mice): protected mice against hepatic ischemia/reperfusion injury
structural stability in mouse serum [4]: retains structural stability for a longer period of time
hyperglycemia (STZ-induced diabetes): delays hyperglycemia
insulitis (STZ-induced diabetes): reduces insulitis
weight gain (STZ-induced diabetes): improves weight gain
serum ALT ([5]; 50 ug/mouse, vs vehicle controls): reduced serum ALT
liver necrosis / liver injury (H&E histology) ([5]; APAP 350 mg/kg IP, K883 50 μg/mouse IP at 2 and 7 hours post-APAP, 24 hours): reduces APAP-induced liver injury; also recorded: reduced liver necrosis
mice surviving the toxicity of APAP ([5]; APAP 400 mg/kg, 50 μg/mouse IP once-a-day for 5 days from 2 hours post-APAP, 2 weeks, control group 8): 14 mice out of 15
percent survival post-APAP ([5]; APAP 400 mg/kg, K883 50 μg/mouse IP once-a-day 5 days, 2 weeks): improved survival outcome; also recorded: significant improvement
AUCss ([6]; IV 1 mg/kg, individual rats, 1 mg/kg): 3776 ng·h/mL and 3808 ng·h/mL and 3751 ng·h/mL
AUCss, Mean ([6]; IV 1 mg/kg, mean of 3 rats): 3778 ng·h/mL
half-life in serum (FIG. 23) ([6]; rat, in vivo): longer half-life in serum

half-life in serum (FIG. 23) [7]: undetectable
Structure (SMILES): NC(=O)[C@H](CCC(=O)O)NC(=O)[C@H](CO)NC(=O)[C@H](CO)NC(=O)[C@@H](N)Cc1ccccc1 [P5779]
serum levels of ALT and AST / tissue damage ([8]; P5779 500 μg/mouse IP at time of I/R surgery, 6 hours): reduced
liver H&E staining: inflammation (neutrophil infiltration) ([8]; P5779, 6 hours after reperfusion, vs vehicle): reduced inflammation
TNF release in macrophages stimulated by LPS, PGN, Poly I:C, CpG DNA or S100 A12 [9]: not suppress TNF release
liver necrosis / liver injury (H&E histology) ([10]; APAP 350 mg/kg, P5779 50 or 500 μg/mouse IP at 2 and 7 hours, vs scrambled control peptide): reduced APAP-mediated liver injury; also recorded: reduced liver necrosis
percent survival post-APAP ([10]; APAP 400 mg/kg, P5779 500 μg/mouse IP once a day 5 days, 2 weeks, vs scrambled control peptide): increased survival; also recorded: significantly improved
serum ALT ([10]; P5779 500 ugs/mouse, comparative data): significant reductions in ALT
HMGB1-induced TNF release from macrophages [11]: inhibit HMGB1-induced TNF release from macrophages in a concentration-dependent manner
